Experimental data from patent US10865192B2, “Nicotine salts, co-crystals, and salt co-crystal complexes” (priority 2014, dated 2020).
Read-outs that look alike come from different tables or passages of the source.

What was measured:
[1] = Static stability at elevated humidity (appearance and XRPD after storage); conditions: for Result (stability of screening orotic acid salts): Table 3, XRPD dry and after 1 week at 40° C./75% relative humidity (FIG. 14); for Result (stability of screening fumaric acid salts): Table 8, 40° C./75% RH, 1 day; for Static stability 25° C./96% RH: storage at 25° C./96% RH; for Static stability 25° C./96% RH / Static stability 40° C./75% RH: up to 1 week, appearance and XRPD; for Static stability 40° C./75% RH: storage at 40° C./75% RH
[2] = for Behaviour after deliquescence when humidity is reduced / On desorption, moisture retained down to / water lost by: GVS desorption; for Total weight change 0-90% RH / Hygroscopicity / behaviour in GVS experiment / Relative humidity at which sample deliquesced in GVS (stable until) / On desorption, moisture retained down to / water lost by: 25° C.; for XRPD of residue after GVS: residue recovered after GVS isotherm; for Relative humidity at which sample deliquesced in GVS (stable until): GVS adsorption
Procedure: Sorption isotherms were obtained using a SMS DVS Intrinsic moisture sorption analyzer, controlled by DVS Intrinsic Control software v1.0.1.2 (or v 1.0.1.3). The sample temperature was maintained at 25° C. by the instrument controls. The humidity was controlled by mixing streams of dry and wet nitrogen, with a total flow rate of 200 ml/min The relative humidity was measured by a calibrated Rotronic probe (dynamic range of 1.0-100% RH), located near the sample. The weight change, (mass relaxation) of the sample as a function of % RH was constantly monitored by the microbalance (accuracy±0.005 mg).
Typically 5-20 mg of sample was placed in a tared mesh stainless steel basket under ambient conditions. The sample was loaded and unloaded at 40% RH and 25° C. (typical room conditions). A moisture sorption isotherm was performed as outlined below (2 scans giving 1 complete cycle). The standard isotherm was performed at 25° C. at 10% RH intervals over a 0-90% RH range. Data analysis was carried out using Microsoft Excel using DVS Analysis Suite v6.2 (or 6.1 or 6.0).
The sample is recovered after completion of the isotherm and re-analyzed by XRPD.

[3] = exposed to 650° C.

CN1CCCC1c1cccnc1.O=C(O)c1cc(=O)[nH]c(=O)[nH]1.O=C(O)c1cc(=O)[nH]c(=O)[nH]1 (centres unmarked) [Formation in ethanol]
Result (stability of screening orotic acid salts) [1]: Stable

CN1CCCC1c1cccnc1.O=C(O)C=CC(=O)O (centres unmarked) [Formation in neat nicotine]
Result (stability of screening fumaric acid salts) [1]: Deliquesced

CN1CCCC1c1cccnc1.O=C(O)c1cc(=O)[nH]c(=O)[nH]1 (centres unmarked) [Formation in water]
Result (stability of screening orotic acid salts) [1]: Stable

CN1CCCC1c1cccnc1.O=C(O)/C=C/C(=O)O (centres unmarked) [Fumarate salt (prepared in THF), nicotine fumarate]
Humidity at which the form deliquesces (elevated humidities) [1]: > 75 % RH
Behaviour after deliquescence when humidity is reduced ([2]; fumarate): remains a liquid
Behaviour after deliquescence when humidity is reduced ([2]; listed as Fumarate Pattern 1, fumarate): does not re-crystallize
Weight gain from 0-90% RH in the GVS isotherm ([2]; GVS isotherm, 0-90% RH): 82%
Total weight change 0-90% RH ([2]; GVS isotherm, 0-90% RH): Total weight change 0-90% RH = 82 wt. %
Hygroscopicity / behaviour in GVS experiment ([2]; 0-90% RH, fumarate): wt. %, sample deliquesces and
Hygroscopicity / behaviour in GVS experiment ([2]; 0-90% RH, listed as Fumarate Pattern 1, fumarate): hygroscopic
Nicotine liberated on decomposition (peak areas) [3]: 97 % peak areas

CN1CCCC1c1cccnc1.O=C(O)c1cc(=O)[nH]c(=O)[nH]1 (centres unmarked) [Grinding]
Result (stability of screening fumaric acid salts) [1]: Deliquesced

(S)-nicotine bis-orotate [Salt A]
Static stability 25° C./96% RH [1]: Pattern 1, runny material
Static stability 25° C./96% RH ([1]; listed as Orotate Pattern 1): runny material
Static stability 25° C./96% RH ([1]; listed as bis-orotate salt-co-crystal): runny material
Static stability 40° C./75% RH [1]: No change
Thermal stability: thermally stable
Total weight change 0-90% RH ([2]; GVS isotherm, 0-90% RH): RH = 0.8 wt. %, steady change in
Hygroscopicity / behaviour in GVS experiment ([2]; 0-90% RH): only slightly hygroscopic
XRPD of residue after GVS [2]: XRPD of residue showed no
Nicotine liberated on decomposition (peak areas) [3]: 97 % peak areas

(S)-nicotine mono-orotate hemi-hydrate [Salt B]
Stability on exposure to high / elevated humidity ([1]; high humidity, general statement): not stable to exposure to high humidity
Static stability 25° C./96% RH [1]: Sticky after 24 hours, deliquesced
Static stability 25° C./96% RH ([1]; listed as Orotate Pattern 2): deliquesced
Static stability 40° C./75% RH [1]: Pattern 2, sticky material
Static stability 40° C./75% RH ([1]; listed as Orotate Pattern 2): sticky material
Relative humidity at which sample deliquesced in GVS (stable until) [2]: 80% RH then deliquesced On
Relative humidity at which sample deliquesced in GVS (stable until) ([2]; listed as Orotate Pattern 2): 80 % RH
Behaviour after deliquescence when humidity is reduced [2]: re-crystallized
On desorption, moisture retained down to / water lost by [2]: down to 60% RH XRPD of residue
On desorption, moisture retained down to / water lost by ([2]; listed as Orotate Pattern 2): 60 % RH
Total weight change 0-90% RH ([2]; GVS isotherm, 0-90% RH): RH = ~60 wt. %, stable until
XRPD of residue after GVS [2]: Pattern 2 with some Orotate Pattern 1
XRPD of residue after GVS ([2]; listed as Orotate Pattern 2): contained some Pattern 1 material
Nicotine liberated on decomposition (peak areas) [3]: 97 % peak areas
